Measured values as given in patent publication US20250171753A1, “PEPTIDE AND USE THEREOF IN THE PREVENTION OF THERAPY-RELATED LEUKEMIA” (UNIVERSITÄT ULM, priority 2022, published 2025).
Where no end group is shown, it is not given here.

What was measured:
[1] = tested on: HeLa/MLL cells; assay: Cell survival of HeLa/MLL cells by FSC/SSC gating in FACS; assay type: cell-based, human; conditions: HeLa/MLL nucleofected with peptide; 0.5 μM doxorubicin 4 h; 72 h
Protocol: HeLa/MLL cells (0.5×10^6) were nucleofected with the peptide on the first day and split into three 6-wells for further cultivation. On the second day, the cells were treated with 0.5 μM doxorubicin for 4 h. […]. Afterwards, the medium was removed, the cells were washed with 2 ml PBS and 2 ml new medium was added. For FACS measurements, the cells were washed with PBS after 72 h of culture, 200 μl of trypsin (PAN Biotech, Aidenbach, Germany) was added and the reaction was stopped with medium. Genomic DNA was isolated without recultivation after doxorubicin treatment.
Use of the fluorescence-based assay system for recombination measurements with K562/MLL or HeLa/MLL cells with chromosomally integrated plasmid pHR-EGFP/3′EGFP-MLLbcr.fwd is described in detail in Ireno et al. 2014 and Gole et al. 2015, respectively. […] This suspension was transferred to FACS tubes and the fluorescence of the cells was detected on the FACSCalibur™ (BD Biosciences, San Jose, California, USA). […] Subsequently, the selected cell population was separated in another dot-plot diagram with FL-1/FL-2 alignment depending on their fluorescence properties (FL-1 for green fluorescence, FL-2 for orange intrinsic fluorescence). Depending on the approach, 150,000 to 1,000,000 living cells were analyzed. […]

[2] = tested on: K562/MLL cells; assay: Cell survival of K562/MLL cells by FSC/SSC gating in FACS; assay type: cell-based; conditions: for effect of peptide on cell survival after doxorubicin treatment: K562/MLL nucleofected with 0-600 μg peptide per 1×10^6 cells; for effect of peptide on cell survival after doxorubicin treatment / cell survival: 2 μM doxorubicin 4 h; for cell survival: 72 h; for toxic effects toward leukemia cells (summary statement): leukemia cells after doxorubicin treatment; for toxicity of the peptide in K562/MLL cells: K562/MLL nucleofected with different peptide concentrations, 2 μM doxorubicin
Protocol: (§1) K562/MLL cells were divided 1:2 before the start of the experiment and transfected with the plasmid (2×10^6 cells) or nucleofected with the peptide (1×10^6 cells) on the second day. After 24 h, the cells were then treated with 2 μM doxorubicin (Uniklinik Ulm, Germany) and after 4 h incubation, the cells were centrifuged, the supernatant discarded and the cells taken up in 2 ml PBS (Gibco/Thermo Fisher Scientific). After centrifugation again, the supernatant was discarded and the cells were seeded in 2 ml of new culture medium for 72 h.
Use of the fluorescence-based assay system for recombination measurements with K562/MLL or HeLa/MLL cells with chromosomally integrated plasmid pHR-EGFP/3′EGFP-MLLbcr.fwd is described in detail in Ireno et al. 2014 and Gole et al. 2015, respectively. For the acquisition of recombination data, cells were harvested, pelleted, resuspended in PBS and then re-sedimented. The cell pellets were stored on ice and resuspended in PBS (mixed with 0.2% EDTA) only shortly before FACS measurement. This suspension was transferred to FACS tubes and the fluorescence of the cells was detected on the FACSCalibur™ (BD Biosciences, San Jose, California, USA). To achieve a separation between living and dead cells, the cell clouds were plotted linearly against FSC/SSC orientation in a dot plot diagram. Depending on cell size and granularity, the living cells were distinguished from cell debris and dead cells by placing a marker (gate) around the “living cell cloud”. Subsequently, the selected cell population was separated in another dot-plot diagram with FL-1/FL-2 alignment depending on their fluorescence properties (FL-1 for green fluorescence, FL-2 for orange intrinsic fluorescence). Depending on the approach, 150,000 to 1,000,000 living cells were analyzed. Recombination frequencies were determined from the proportion of green fluorescent cells in the living cell population.
K562/MLL cells were electroporated with these expression plasmids for the different Ku80 variants or the empty vector (control) and 24 h later treated for 4 h with the chemotherapeutic agent doxorubicin (2 μM). After washing the cells, they were cultured in fresh medium for a further 72 h. The subsequent detection of green fluorescent cells for analysis of recombination frequencies was achieved by FACS using a diagonal gate in a FL-1/FL-2 dot plot diagram. Living cells were pre-selected by FSC/SSC gating to distinguish between EGFP-positive and -negative within the living cells.
The peptides were introduced into K562/MLL cells by Nucleofector™ technology as described above. The cells were nucleofected with 0-600 μg peptide per 1×10^6 cells and treated with 2 μM doxorubicin for 4 h after 24 h. After washing, the cells were cultured for another 72 h in fresh medium. […] Subsequently, recombination frequencies were determined.
Cell survival was determined in parallel with the recombination measurements.

[3] = tested on: MLLbcr rearrangements in K562/MLL cells; assay: Fluorescence-based (EGFP reconstitution) recombination assay for MLLbcr rearrangements in K562/MLL cells after doxorubicin; assay type: cell-based, human; conditions: expression plasmid electroporated into K562/MLL; 2 μM doxorubicin 4 h after 24 h; 72 h culture; vs empty vector control set to 100%
Protocol: as §1
Use of the fluorescence-based assay system for recombination measurements with K562/MLL or HeLa/MLL cells with chromosomally integrated plasmid pHR-EGFP/3′EGFP-MLLbcr.fwd is described in detail in Ireno et al. 2014 and Gole et al. 2015, respectively. For the acquisition of recombination data, cells were harvested, pelleted, resuspended in PBS and then re-sedimented. The cell pellets were stored on ice and resuspended in PBS (mixed with 0.2% EDTA) only shortly before FACS measurement. This suspension was transferred to FACS tubes and the fluorescence of the cells was detected on the FACSCalibur™ (BD Biosciences, San Jose, California, USA). To achieve a separation between living and dead cells, the cell clouds were plotted linearly against FSC/SSC orientation in a dot plot diagram.

[4] = K562/MLL nucleofected with 50 μg peptide
[5] = K562/MLL nucleofected with 100 μg peptide

CC[C@H](C)[C@H](NC(=O)CNC(=O)[C@H](CC(=O)O)NC(=O)[C@H](CCC(N)=O)NC(=O)[C@@H](NC(=O)[C@@H](NC(=O)[C@@H](NC(=O)[C@@H](N)CCC(=O)O)[C@@H](C)CC)C(C)C)C(C)C)C(=O)N[C@H](C(=O)N[C@@H](CC(C)C)C(=O)N[C@H](C(=O)N[C@H](C(=O)N[C@@H](CCCCN)C(=O)N[C@@H](CCC(=O)O)C(=O)N[C@@H](CCC(=O)O)C(=O)N[C@@H](C)C(=O)N[C@@H](CO)C(=O)NCC(=O)N[C@@H](CO)C(=O)N[C@@H](CO)C(=O)N[C@H](C(=O)N[C@H](C(=O)N[C@@H](C)C(=O)N[C@@H](CCC(=O)O)C(=O)N[C@@H](CCC(=O)O)C(=O)N[C@@H](C)C(=O)N[C@@H](CCCCN)C(=O)N[C@@H](CCCCN)C(=O)O)[C@@H](C)O)C(C)C)[C@@H](C)O)[C@@H](C)CC)[C@@H](C)O [Ku3]
effect on cell survival [1]: without affecting cell survival
effect of peptide on cell survival after doxorubicin treatment [2]: not affected
cell survival [2, 4]: not affected
cell survival [2, 5]: not affected
toxic effects toward leukemia cells (summary statement) [2]: without exhibiting toxic effects

COc1cccc2c1C(=O)c1c(O)c3c(c(O)c1C2=O)C[C@@](O)(C(=O)CO)C[C@@H]3O[C@H]1C[C@H](N)[C@H](O)[C@H](C)O1 [doxorubicin, reference compound]
cell survival after doxorubicin treatment ([2]; human, 4 h, 2 μM): 70-80%

ASFEEASNQLINHIEQFLDTNETPYFMKSI [Ku4]
toxicity of the peptide in K562/MLL cells [2]: caused toxicities
reduction of cell survival after doxorubicin treatment to ([2]; K562/MLL nucleofected with ≥300 μg peptide): ≥ half

EIVVQDGITLITKAEASGSSVTAEEAKK [Ku3 mut1, reference compound]
cell survival [2, 4]: not affected

ITKEEASGSSVTAEEAKKFLA [SEQ ID No. 4]
toxic effects toward leukemia cells (summary statement) [2]: without exhibiting toxic effects

ITKEEASGSSVTAEEAKKFLAG [Ku1]
effect of peptide on cell survival after doxorubicin treatment [2]: did not affect cell survival

RVLVKQKKASFEEASNQLINHIEQFL [Ku2]
reduction of cell survival after doxorubicin treatment to ([2]; K562/MLL nucleofected with 200-400 μg peptide): ≥ half
toxicity of the peptide in K562/MLL cells [2]: caused toxicities

VDSTTIEKSIAEVAEEQESILKKVAGGT [scrambled peptide, reference compound]
cell survival [2, 5]: not affected

B1: Ku80ct: Ku80 amino acids 592-709 fused behind the amino acids PTAKKLK of the nuclear localization signal, expressed from plasmid (protein, UniProt P13010 592-709, looked up, fragment)
chain: VNPAENFRVLVKQKKASFEEASNQLINHIEQFLDTNETPYFMKSIDCIRAFREEAIKFSEEQRFNNFLKALQEKVEIKQLNHFWEIVVQDGITLITKEEASGSSVTAEEAKKFLAPKD
modifications: N-terminal NLS peptide PTAKKLK
notes: Ku80 amino acids 592-709 fused behind the amino acids PTAKKLK of the nuclear localization signal, expressed from plasmid
MLLbcr rearrangements (recombination frequency) lowered by [3]: 45%
